The source of these data is ChEMBL document CHEMBL5360554, “Optimization of the C2 substituents on the 1,4-bis(arylsulfonamido)naphthalene-N,N'-diacetic acid scaffold for better inhibition of Keap1-Nrf2 protein-protein interaction” (Eur J Med Chem, 2023).

Calls of active or inactive are those of the source. The calls are words filed in the database; no cut-off is given here.

What is called IC50 is the concentration that gives 50% inhibition. Lower therefore signals greater potency in that assay. The Ki is a dissociation constant, usually derived from enzyme kinetics or from competition with a known ligand.

The target in experiment [1] is T1, Keap1/Nrf2 (Homo sapiens, UniProt Q14145). The experiment is described as follows: Inhibition of Keap1-Nrf2 protein-protein interaction (unknown origin) incubated for 34 mins by fluorescence polarization assay. For orientation: Fluorescence polarisation rises when a labelled molecule tumbles more slowly, as on binding a larger partner.
Experiment [2] addresses T1, Keap1/Nrf2. The experiment is described as follows: Inhibition of Keap1-Nrf2 protein-protein interaction (unknown origin) preincubated for 30 mins followed by Terbium labeled anti-His antibody addition for 30 mins prior to fluorescein labeled-9mer Nrf2 peptide addition and measured after 60 mins by TR-FRET assay. On the technique in general: TR-FRET usually uses a lanthanide donor and a delayed reading to cut background.

For experiment [3], the target named is T2, Keap1/Nrf2 (Homo sapiens) (UniProt Q16236+Q14145). Description: Inhibition of Keap1-Nrf2 protein-protein interaction in human NCM460D cells assessed as increase in HMOX1 gene expression at 100 uM by RT-qPCR analysis. The experiment is classed as cell-based. In general terms: In qPCR the cycle at which signal appears reflects the starting amount.
Experiment [4] has as its target T2, Keap1/Nrf2 (Homo sapiens). The experiment is described as follows: Inhibition of Keap1-Nrf2 protein-protein interaction in human NCM460D cells assessed as increase in GSTM3 gene expression at 100 uM by RT-qPCR analysis. The experiment is classed as cell-based.
Experiment [5] addresses T2, Keap1/Nrf2 (Homo sapiens). The experiment is described as follows: Inhibition of Keap1-Nrf2 protein-protein interaction in human NCM460D cells assessed as increase in NQO1 gene expression at 100 uM by RT-qPCR analysis. The experiment is classed as cell-based.
Experiment [6] concerns the target T2, Keap1/Nrf2 (Homo sapiens). The experiment is described as follows: Inhibition of Keap1-Nrf2 protein-protein interaction in human NCM460D cells assessed as fold increase in GSTM3 gene expression at 100 uM by RT-qPCR analysis. The format is cell-based.
Experiment [7] has as its target T2, Keap1/Nrf2 (Homo sapiens). The experiment is described as follows: Inhibition of Keap1-Nrf2 protein-protein interaction in human NCM460D cells assessed as fold increase in HMOX1 gene expression at 100 uM by RT-qPCR analysis. The experiment is classed as cell-based.
In experiment [8] the target is T2, Keap1/Nrf2 (Homo sapiens). Description: Inhibition of Keap1-Nrf2 protein-protein interaction in human NCM460D cells assessed as fold increase in NQO1 gene expression at 100 uM by RT-qPCR analysis. The format is cell-based.
For experiment [9], the target named is T2, Keap1/Nrf2 (Homo sapiens). The experiment is described as follows: Inhibition of Keap1-Nrf2 protein-protein interaction in human NCM460D cells assessed as fold increase in GSTM3 gene expression at 10 uM by RT-qPCR analysis. The format is cell-based.
The target in experiment [10] is T2, Keap1/Nrf2 (Homo sapiens). The experiment is described as follows: Inhibition of Keap1-Nrf2 protein-protein interaction in human NCM460D cells assessed as fold increase in HMOX1 gene expression at 10 uM by RT-qPCR analysis. The format is cell-based.
For experiment [11], the target named is T2, Keap1/Nrf2 (Homo sapiens). Description: Inhibition of Keap1-Nrf2 protein-protein interaction in human NCM460D cells assessed as fold increase in NQO1 gene expression at 10 uM by RT-qPCR analysis. The format is cell-based.

T1 sequence (Q16236 whole entry): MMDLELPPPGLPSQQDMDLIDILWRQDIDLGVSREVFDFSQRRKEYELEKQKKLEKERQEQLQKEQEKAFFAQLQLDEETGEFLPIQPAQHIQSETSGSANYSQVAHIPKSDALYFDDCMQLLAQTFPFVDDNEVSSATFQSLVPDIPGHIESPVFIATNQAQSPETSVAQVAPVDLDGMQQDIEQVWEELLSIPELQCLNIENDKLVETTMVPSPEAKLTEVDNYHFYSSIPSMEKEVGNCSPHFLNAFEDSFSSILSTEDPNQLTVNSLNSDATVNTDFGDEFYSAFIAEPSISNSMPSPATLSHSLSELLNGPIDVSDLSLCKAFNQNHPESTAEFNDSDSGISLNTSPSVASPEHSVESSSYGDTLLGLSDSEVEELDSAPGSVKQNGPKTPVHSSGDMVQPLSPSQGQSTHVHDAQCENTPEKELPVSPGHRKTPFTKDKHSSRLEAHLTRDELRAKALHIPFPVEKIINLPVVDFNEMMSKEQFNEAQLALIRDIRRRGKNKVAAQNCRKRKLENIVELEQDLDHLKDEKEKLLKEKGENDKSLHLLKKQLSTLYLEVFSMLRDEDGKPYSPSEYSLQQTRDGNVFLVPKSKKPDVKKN
T1 sequence (Q14145 whole entry): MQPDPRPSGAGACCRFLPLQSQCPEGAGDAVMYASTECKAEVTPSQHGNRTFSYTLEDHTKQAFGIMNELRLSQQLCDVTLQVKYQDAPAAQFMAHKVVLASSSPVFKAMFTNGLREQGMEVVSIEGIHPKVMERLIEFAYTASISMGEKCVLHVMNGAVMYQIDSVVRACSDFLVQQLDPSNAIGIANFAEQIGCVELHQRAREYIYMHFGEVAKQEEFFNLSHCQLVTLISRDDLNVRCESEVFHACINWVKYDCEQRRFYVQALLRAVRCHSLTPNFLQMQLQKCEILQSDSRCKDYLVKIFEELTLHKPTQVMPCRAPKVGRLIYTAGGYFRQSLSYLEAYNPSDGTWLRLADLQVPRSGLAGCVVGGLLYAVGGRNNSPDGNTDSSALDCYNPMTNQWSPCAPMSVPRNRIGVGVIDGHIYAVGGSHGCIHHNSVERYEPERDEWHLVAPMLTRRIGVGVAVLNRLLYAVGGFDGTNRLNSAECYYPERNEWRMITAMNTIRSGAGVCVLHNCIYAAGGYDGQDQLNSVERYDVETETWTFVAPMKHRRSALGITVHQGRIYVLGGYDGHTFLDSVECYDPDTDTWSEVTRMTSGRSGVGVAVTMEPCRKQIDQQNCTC
T2 sequence (Q14145 whole entry, looked up): as the sequence (Q14145 whole entry) above
T2 sequence (Q16236 whole entry, looked up): as the sequence (Q16236 whole entry) above

As for `COc1ccc(S(=O)(=O)N(CC(=O)O)c2cc(-c3ccccc3)c(N(CC(=O)O)S(=O)(=O)c3ccc(OC)cc3)c3ccccc23)cc1`, at Keap1/Nrf2 [1], the IC50 was determined as 0.096 µM. At Keap1/Nrf2 [2], this compound registered an IC50 of 0.0077 µM and a Ki of 0.0024 µM.
`COc1ccc(S(=O)(=O)N(CC(N)=O)c2cc(CCC(=O)O)c(N(CC(N)=O)S(=O)(=O)c3ccc(OC)cc3)c3ccccc23)cc1`: the concentration for half-maximal inhibition (IC50) on Keap1/Nrf2 [1] came to 0.162 µM; at Keap1/Nrf2 [2], 0.0227 µM. The affinity at Keap1/Nrf2 [2] corresponds to a Ki of 0.0093 µM.
With `COc1ccc(S(=O)(=O)N(CC(=O)O)c2cc(Sc3ccccc3)c(N(CC(=O)O)S(=O)(=O)c3ccc(OC)cc3)c3ccccc23)cc1`, half-maximal inhibition at Keap1/Nrf2 [1] (IC50) was put at 0.085 µM. At Keap1/Nrf2 [2], this compound yielded an IC50 of 0.0058 µM and a Ki of 0.0015 µM.
With `COc1ccc(S(=O)(=O)N(CC(=O)O)c2cc(CCC(=O)N3CCOCC3)c(N(CC(=O)O)S(=O)(=O)c3ccc(OC)cc3)c3ccccc23)cc1`, the IC50 against Keap1/Nrf2 [1] came to 0.087 µM; on Keap1/Nrf2 [2], 0.0069 µM. Also, on Keap1/Nrf2 [2], the Ki worked out at 0.002 µM. In addition, the “HMOX1 gene expression increase (active/not active)” value in experiment [3] was “Active”. The inhibition result in experiment [4] and in experiment [5] was “Active” each time.
Turning to `COc1ccc(S(=O)(=O)N(CC(=O)O)c2cc(CCC(=O)NC(C)C)c(N(CC(=O)O)S(=O)(=O)c3ccc(OC)cc3)c3ccccc23)cc1`, the half-maximal inhibitory concentration (IC50) was found to be 0.102 µM against Keap1/Nrf2 [1] and 0.0126 µM on Keap1/Nrf2 [2]. The compound further showed a Ki on Keap1/Nrf2 [2] of 0.0046 µM.
For `COc1ccc(-c2cc(N(CC(=O)O)S(=O)(=O)c3ccc(OC)cc3)c3ccccc3c2N(CC(=O)O)S(=O)(=O)c2ccc(OC)cc2)cc1`, the IC50 on Keap1/Nrf2 [1] is 0.085 µM; against Keap1/Nrf2 [2], 0.0131 µM. The compound also yielded a Ki at Keap1/Nrf2 [2] of 0.0049 µM. In addition, in [3], the “HMOX1 gene expression increase (active/not active)” value is “Active”. For the same compound, the inhibition entry in experiment [4] and in experiment [5] was “Active” throughout. For the same compound, the fold change (FC) in experiment [6], in [7] and in [8] was 8 each time.
With `COc1ccc(S(=O)(=O)N(CC(=O)O)c2cc(-c3ccc(C#N)cc3)c(N(CC(=O)O)S(=O)(=O)c3ccc(OC)cc3)c3ccccc23)cc1`, the IC50 was 0.117 µM at Keap1/Nrf2 [1] and 0.0092 µM at Keap1/Nrf2 [2]. Further, at Keap1/Nrf2 [2], the Ki came to 0.0031 µM. The “HMOX1 gene expression increase (active/not active)” value in [3] was “inactive”. Moreover, the inhibition result in experiment [4] and in experiment [5] was “inactive” throughout.
At Keap1/Nrf2 [2], `COc1ccc(S(=O)(=O)N(CC(=O)O)c2cc(CCCN(C)Cc3ccccc3)c(N(CC(=O)O)S(=O)(=O)c3ccc(OC)cc3)c3ccccc23)cc1` showed an IC50 of 0.0736 µM and a Ki of 0.0329 µM.
Regarding `COc1ccc(S(=O)(=O)N(CC(=O)O)c2cc(CCCN3C(=O)c4ccccc4C3=O)c(N(CC(=O)O)S(=O)(=O)c3ccc(OC)cc3)c3ccccc23)cc1`, the IC50 against Keap1/Nrf2 [1] is 0.077 µM; against Keap1/Nrf2 [2] it was 0.0025 µM. Besides, the Ki on Keap1/Nrf2 [2] was under 0.0001 µM. Further, the “HMOX1 gene expression increase (active/not active)” value in [3] is “Active”. In addition, the inhibition result in experiment [4] and in experiment [5] was “Active” throughout. For the same compound, the fold change (FC) in experiment [9], in [10] and in [11] was 3 each time.
As for `COc1ccc(S(=O)(=O)N(CC(=O)O)c2cc(-c3ccc(N4C(=O)c5ccccc5C4=O)cc3)c(N(CC(=O)O)S(=O)(=O)c3ccc(OC)cc3)c3ccccc23)cc1`, the figures for the IC50 at Keap1/Nrf2 [1] and on Keap1/Nrf2 [2] were 0.09 µM and 0.0071 µM, respectively. At Keap1/Nrf2 [2], this compound had a Ki of 0.0021 µM. For the same compound, the “HMOX1 gene expression increase (active/not active)” value in experiment [3] is “Active”. The inhibition entry in experiment [4] and in [5] was “Active” in each case. The fold change (FC) in experiment [9], in experiment [10] and in [11] was 3 throughout.
Take `COc1ccc(S(=O)(=O)N(CC(=O)O)c2cc(CCC(N)=O)c(N(CC(=O)O)S(=O)(=O)c3ccc(OC)cc3)c3ccccc23)cc1`: the IC50 on Keap1/Nrf2 [1] is 0.108 µM. For the same compound, at Keap1/Nrf2 [2], the midpoint of inhibition, the IC50, lay at 0.0117 µM and the affinity, expressed as Ki, was 0.0042 µM.
